For one assay, the target named is T1, Human IBAT (Homo sapiens, UniProt Q12908).
T1 construct: expressed in transfected cells; kept under puromycin selection
T1 sequence (Q12908 1-348): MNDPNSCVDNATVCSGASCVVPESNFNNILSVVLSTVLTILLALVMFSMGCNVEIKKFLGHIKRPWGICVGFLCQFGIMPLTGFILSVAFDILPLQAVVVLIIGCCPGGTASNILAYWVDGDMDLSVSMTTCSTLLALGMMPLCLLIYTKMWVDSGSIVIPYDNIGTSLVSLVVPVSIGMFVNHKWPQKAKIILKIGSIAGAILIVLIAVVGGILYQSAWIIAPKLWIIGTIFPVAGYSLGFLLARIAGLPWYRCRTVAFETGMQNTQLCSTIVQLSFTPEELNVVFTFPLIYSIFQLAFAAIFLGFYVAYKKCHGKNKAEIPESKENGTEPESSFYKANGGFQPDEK
As to the kind of experiment: 3H-taurocholic acid uptake in human IBAT-overexpressing cells. The format is cell-based. The following applies: 3H-taurocholic acid transport. As for the experimental part:
10,000 cells (Human & Mouse IBAT-overexpressing cells) were seeded in 96-wells plate in 100 μL MEM-alpha medium supplemented with 10% FBS containing puromycin (10 μg/mL) and incubated at 37° C. in 5% CO2 for 48 hrs. After incubation media was decanted from the wells, cells were washed two times with 250 μL of basal MEM-alpha medium (FBS-free). After each wash, plates were tapped against paper towel to ensure maximum removal of residual media. Test inhibitor dilutions (highest test concentration being 10 μM, 3-fold serial dilution, 10 concentrations) prepared in DMSO were added to the incubation mix (maintaining 0.2% final DMSO concentration) containing 0.25 μM ^3H-taurocholic acid and 5 μM of cold taurocholic acid. […]
After incubation, the reaction was stopped by keeping the plates on ice water mix for 2-3 minutes and then the incubation mix was aspirated completely from the wells. […] 100 μL of MicroScint-20 was added to the wells and kept overnight at room temperature before reading the plates in MicroBeta2 liquid Scintillation Counter from PerkinElmer under ^3H Test for I/L-BAT protocol (set at 120 seconds reading time per well, with normal plate orientation).
Percentage inhibitions were calculated with respect to the assay controls. […]

For another assay, the target named is T2, Human NTCP (Homo sapiens, UniProt Q14973).
T2 construct: expressed in transfected cells; peptide purchased from Pharmaron
T2 sequence (Q14973 1-349): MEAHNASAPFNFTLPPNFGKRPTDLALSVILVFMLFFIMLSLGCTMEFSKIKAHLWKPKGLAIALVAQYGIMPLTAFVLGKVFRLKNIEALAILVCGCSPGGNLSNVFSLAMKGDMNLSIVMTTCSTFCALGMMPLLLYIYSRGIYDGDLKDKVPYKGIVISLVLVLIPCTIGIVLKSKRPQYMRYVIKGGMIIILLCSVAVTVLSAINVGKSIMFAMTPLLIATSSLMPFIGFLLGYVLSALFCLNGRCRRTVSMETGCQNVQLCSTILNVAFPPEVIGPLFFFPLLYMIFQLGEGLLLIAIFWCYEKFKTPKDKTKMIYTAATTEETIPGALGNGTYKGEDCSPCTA
As to the kind of experiment: Time course of dissociation (washout), [3H]taurocholate uptake in hNTCP CHO cells. The following applies: 1 μM for 15 min, 6 hours postwashout; read-out: inhibition of human NTCP BA transport activity after washout. The assay is classed as cell-based. How it is done: This study was performed using a [^3H]taurocholate uptake assay protocol. Stably transfected CHO cells expressing human NTCP (hNTCP) were seeded onto 24 well plates at a density of 1.5-2.0×10^5 cells/well in CHO cell media (DMEM/F12 media supplemented with 10% FBS, Penicillin/Streptomycin) plus Geneticin (G418) to maintain selection in culture. After overnight incubation, the media was replaced, and CHO cells were treated with 10 mM sodium butyrate to induce transporter expression (final concentration=[…]). Twenty-four h later, the media was removed, and cells were washed with warm (37° C.) Hanks balanced salt solution (HBSS) containing sodium (Na+). Cells were then incubated with 1 μM of the test inhibitors or vehicle (DMSO) for 15 min in CHO cell media at 37° C. […]
For the [^3H]taurocholate uptake assay, the media was aspirated at the end of each washout period, and cells were washed three times with warm Hanks balanced salt solution (HBSS) containing sodium (Na+). […] Duplicate 100 μL aliquots of the lysate were transferred to vials with scintillation liquid and counted after neutralization and overnight quenching. Cell-associated protein was measured in duplicate using the BCA protein assay, and cell-associated radioactivity was normalized to protein content.

The next assay deals with HBV genotype C. The assay can be described thus: Serum HBeAg in HBV-infected PXB mice. The assay is classed as in vivo, hepatitis B virus. To be noted: 10 mg/kg and 30 mg/kg, Day 14. As for the experimental part: Target volume of blood was collected from all surviving animals under isoflurane anesthesia via the retro-orbital plexus/sinus using Intramedic™ Polyethylene Tubing at each time point. Two microliters (2 μL) from the collected blood were used for human albumin measurements. The remaining blood was centrifuged to separate serum to be used for analyzing the indicated biomarkers. Blood samples were collected according to Table 8.
The individual blood samples of the animals were left at room temperature for at least 5 minutes to coagulate and then centrifuged at 13200×g, 4° C. for 3 minutes to obtain serum. The serum was divided into separate labeled microtubes and stored at −80° C. until analysis.
Serum HBeAg concentration was determined by SRL, Inc. based on a Chemiluminescent Enzyme Immuno Assay (CLEIA) developed by Fujirebio ([…] HBeAg, […]® Prestoll). The dilution factor was 30 and 10, and the measurement range of this assay was between 0.1 and 1590 C.O.I. For the 30-fold diluted samples, the measurement range was adjusted to be between 3 and 47700 C.O.I. And for the 10-fold diluted samples, the measurement range was adjusted to be between 1 and 15900 C.O.I. The lowest quantification limit of this assay was 3.0 C.O.I.

As for `CCCCC1CN(c2ccccc2)c2cc(SC)c(O/C=C(\F)C(=O)O)cc2S(=O)(=O)N1C` (stereo not drawn) [Compound 1, (Z)-3-((3-butyl-2-methyl-7-(methylthio)-1,1-dioxido-5-phenyl-2,3,4,5-tetrahydro-1,2,5-benzothiadiazepin-8-yl)oxy)-2-fluoroacrylic acid], on Human IBAT, the IC50 is 535 ± 83.3 nM. Also, the inhibition at 1 µM on Human NTCP is greater than 50%. Moreover, the “serum HBeAg compared to controls” value in the assay with HBV genotype C is recorded as “lower”.

The term IC50 denotes the concentration needed to halve the response being measured. A high value points to weaker potency. For orientation: inhibition means the change of the read-out against control, counted positive when it falls.

(Values after patent US20230398125A1, “TREATING HEPATITIS” (Albireo AB, priority 2022, published 2023).)
